A value given as a limit tells only on which side of the number the result lay.

The target of this experiment is rat brain cortical membranes (GABA receptor complex, [35S]-TBPS binding). Put plainly: Steroid inhibition of [35S]-TBPS binding. Conditions: 3 nM [35S]-TBPS, in the presence of 5 mM GABA. As to the method:
[^35S]-t-Butylbicyclophosphorothionate (TBPS) binding assays using rat brain cortical membranes in the presence of 5 mM GABA has been described (Gee et al, J Pharmacol. Exp. Ther. 1987, 241, 346-353; Hawkinson et al, Mol. Pharmacol. 1994, 46, 977-985; Lewin, A. H et al., Mol. Pharmacol. 1989, 35, 189-194).
Briefly, cortices are rapidly removed following decapitation of carbon dioxide-anesthetized Sprague-Dawley rats (200-250 g). The cortices are homogenized in 10 volumes of ice-cold 0.32 M sucrose using a glass/teflon homogenizer and centrifuged at 1500×g for 10 min at 4° C. The resultant supernatants are centrifuged at 10,000×g for 20 min at 4° C. to obtain the P2 pellets. The P2 pellets are resuspended in 200 mM NaCl/50 mM Na—K phosphate pH 7.4 buffer and centrifuged at 10,000×g for 10 min at 4° C. This washing procedure is repeated twice and the pellets are resuspended in 10 volumes of buffer. Aliquots ([…]) of the membrane suspensions are incubated with 3 nM [^35S]-TBPS and […] aliquots of test drug dissolved in dimethyl sulfoxide (DMSO) (final 0.5%) in the presence of 5 mM GABA. The incubation is brought to a final volume of 1.0 mL with buffer. Nonspecific binding is determined in the presence of […] and ranged from 15 to 25%. Following a 90 min incubation at room temp, the assays are terminated by filtration through glass fiber filters (Schleicher and Schuell No. 32) using a cell harvester (Brandel) and rinsed three times with ice-cold buffer. Filter bound radioactivity is measured by liquid scintillation spectrometry. Non-linear curve fitting of the overall data for each drug averaged for each concentration is done using Prism (GraphPad). […] The concentration of test compound producing 50% inhibition (IC50) of specific binding and the maximal extent of inhibition (Imax) are determined for the individual experiments with the same model used for the overall data and then the means±SEMs of the individual experiments are calculated.
Various compounds are or can be screened to determine their potential as modulators of [^35S]-TBPS binding in vitro. These assays are or can be performed in accordance with the above discussed procedures.
For orientation: IC50 means the concentration at which inhibition is half-maximal. On to `CC(=O)[C@H]1[C@H](C)C[C@H]2[C@@H]3CC[C@H]4C[C@](C)(O)CC[C@@H]4[C@H]3CC[C@@]21C` (stereo in doubt) [Compound 91], for which the IC50 fell in the range of 10 to 50 nM.

`C[C@@H]1C[C@H]2C[C@](C)(O)CC[C@]2(C)[C@H]2CC[C@]3(C)[C@@H](C#N)CC[C@H]3[C@H]12` [Compound 1]: the IC50 is no less than 500 nM.

Turning to `C[C@H]1C[C@H]2C[C@](C)(O)CC[C@]2(C)[C@H]2CC[C@]3(C)[C@@H](C#N)CC[C@H]3[C@H]12` [Compound 2], the concentration for half-maximal inhibition (IC50) was no less than 500 nM.

As to `CO[C@H]1CC[C@H]2[C@@H]3[C@H](C)C[C@H]4C[C@](C)(O)CC[C@]4(C)[C@H]3CC[C@]12C` [Compound 3], the IC50 was no less than 500 nM.

With `CO[C@H]1CC[C@H]2[C@@H]3[C@@H](C)C[C@H]4C[C@](C)(O)CC[C@]4(C)[C@H]3CC[C@]12C` [Compound 4], the IC50 was no less than 500 nM.

Consider `CC(=O)[C@H]1CC[C@H]2[C@@H]3[C@H](C)C[C@H]4C[C@](C)(O)CC[C@]4(C)[C@H]3CC[C@]12C` [Compound 5], for which the IC50 is no less than 500 nM.

As for `CC(=O)[C@H]1CC[C@H]2[C@@H]3[C@@H](C)C[C@H]4C[C@](C)(O)CC[C@]4(C)[C@H]3CC[C@]12C` [Compound 6], the IC50 is no less than 500 nM.

Consider `C[C@H]1C[C@H]2C[C@](C)(O)CC[C@]2(C)[C@H]2CC[C@]3(C)[C@@H](C(=O)Cn4cc5ccncc5n4)CC[C@H]3[C@H]12` [Compound 7], for which the IC50 is no less than 500 nM.

Take `C[C@@H]1C[C@H]2C[C@](C)(O)CC[C@]2(C)[C@H]2CC[C@]3(C)[C@@H](C(=O)Cn4cc5ccncc5n4)CC[C@H]3[C@H]12` [Compound 8]: the IC50 is no less than 500 nM.

Turning to `C[C@H]1C[C@H]2C[C@](C)(O)CC[C@]2(C)[C@H]2CC[C@]3(C)[C@@H](C(=O)Cn4ncc5ccncc54)CC[C@H]3[C@H]12` [Compound 9], the IC50 lay in the range of 100 to 500 nM.

With `C[C@@H]1C[C@H]2C[C@](C)(O)CC[C@]2(C)[C@H]2CC[C@]3(C)[C@@H](C(=O)Cn4ncc5ccncc54)CC[C@H]3[C@H]12` [Compound 10], the IC50 is no less than 500 nM.

In the case of `COC[C@H]1C[C@H]2C[C@](C)(O)CC[C@]2(C)[C@H]2CC[C@]3(C)[C@@H](C(C)=O)CC[C@H]3[C@H]12` [Compound 11], the IC50 is no less than 500 nM.

Turning to `COC[C@@H]1C[C@H]2C[C@](C)(O)CC[C@]2(C)[C@H]2CC[C@]3(C)[C@@H](C(C)=O)CC[C@H]3[C@H]12` [Compound 12], the IC50 was no less than 500 nM.

Turning to `COC[C@H]1C[C@H]2C[C@](C)(O)CC[C@]2(C)[C@H]2CC[C@]3(C)[C@@H](C(=O)Cn4cc(C#N)cn4)CC[C@H]3[C@H]12` [Compound 13], the IC50 was no less than 500 nM.

For `COC[C@@H]1C[C@H]2C[C@](C)(O)CC[C@]2(C)[C@H]2CC[C@]3(C)[C@@H](C(=O)Cn4cc(C#N)cn4)CC[C@H]3[C@H]12` [Compound 14], the half-inhibitory concentration (IC50) was no less than 500 nM.

Turning to `COC[C@H]1C[C@H]2C[C@](C)(O)CC[C@]2(C)[C@H]2CC[C@]3(C)[C@@H](C(=O)Cn4nc5ccc(OC)cc5n4)CC[C@H]3[C@H]12` [Compound 15], the IC50 is no less than 500 nM.

Take `COC[C@H]1C[C@H]2C[C@](C)(O)CC[C@]2(C)[C@H]2CC[C@]3(C)[C@@H](C(=O)Cn4nnc5ccc(OC)cc54)CC[C@H]3[C@H]12` [Compound 16]: the IC50 is no less than 500 nM.

With `COC[C@H]1C[C@H]2C[C@](C)(O)CC[C@]2(C)[C@H]2CC[C@]3(C)[C@@H](C(=O)Cn4nnc5cc(OC)ccc54)CC[C@H]3[C@H]12` [Compound 17], the IC50 was no less than 500 nM.

For the molecule `COC[C@@H]1C[C@H]2C[C@](C)(O)CC[C@]2(C)[C@H]2CC[C@]3(C)[C@@H](C(=O)Cn4nc5ccc(OC)cc5n4)CC[C@H]3[C@H]12` [Compound 18], the half-maximal inhibitory concentration (IC50) is no less than 500 nM.

With `COC[C@@H]1C[C@H]2C[C@](C)(O)CC[C@]2(C)[C@H]2CC[C@]3(C)[C@@H](C(=O)Cn4nnc5ccc(OC)cc54)CC[C@H]3[C@H]12` [Compound 19], the IC50 was no less than 500 nM.

For `COC[C@@H]1C[C@H]2C[C@](C)(O)CC[C@]2(C)[C@H]2CC[C@]3(C)[C@@H](C(=O)Cn4nnc5cc(OC)ccc54)CC[C@H]3[C@H]12` [Compound 20], the IC50 is no less than 500 nM.

`COC[C@H]1C[C@H]2C[C@](C)(O)CC[C@]2(C)[C@H]2CC[C@]3(C)[C@@H](C(=O)Cn4cc5ccncc5n4)CC[C@H]3[C@H]12` [Compound 21]: the IC50 is no less than 500 nM.

`COC[C@@H]1C[C@H]2C[C@](C)(O)CC[C@]2(C)[C@H]2CC[C@]3(C)[C@@H](C(=O)Cn4ncc5ccncc54)CC[C@H]3[C@H]12` [Compound 23]: the IC50 is no less than 500 nM.

`COC[C@@H]1C[C@H]2C[C@](C)(O)CC[C@]2(C)[C@H]2CC[C@]3(C)[C@@H](C(=O)Cn4cc5ccncc5n4)CC[C@H]3[C@H]12` [Compound 24]: the IC50 was no less than 500 nM.

In the case of `CC(=O)[C@H]1CC[C@H]2[C@@H]3[C@H](O)C[C@H]4C[C@](C)(O)CC[C@]4(C)[C@H]3CC[C@]12C` [Compound 25], the IC50 is no less than 500 nM.

As for `C[C@@]1(O)CC[C@@]2(C)[C@@H](C[C@@H](O)[C@@H]3[C@@H]2CC[C@]2(C)[C@@H](C(=O)Cn4cc(C#N)cn4)CC[C@@H]32)C1` [Compound 26], the IC50 is no less than 500 nM.

Turning to `C[C@@]1(O)CC[C@@]2(C)[C@@H](C[C@@H](O)[C@@H]3[C@@H]2CC[C@]2(C)[C@@H](C(=O)Cn4cc5ccncc5n4)CC[C@@H]32)C1` [Compound 27], the IC50 was no less than 500 nM.

For the molecule `C[C@@]1(O)CC[C@@]2(C)[C@@H](C[C@@H](O)[C@@H]3[C@@H]2CC[C@]2(C)[C@@H](C(=O)Cn4ncc5ccncc54)CC[C@@H]32)C1` [Compound 28], the IC50 was no less than 500 nM.

`CO[C@@H]1C[C@H]2C[C@](C)(O)CC[C@]2(C)[C@H]2CC[C@]3(C)[C@@H](C(C)=O)CC[C@H]3[C@H]12` [Compound 29]: the half-maximal inhibitory concentration (IC50) is no less than 500 nM.

For `CO[C@H]1C[C@H]2C[C@](C)(O)CC[C@]2(C)[C@H]2CC[C@]3(C)[C@@H](C(C)=O)CC[C@H]3[C@H]12` [Compound 30], the IC50 was no less than 500 nM.

As for `CO[C@H]1C[C@H]2C[C@](C)(O)CC[C@]2(C)[C@H]2CC[C@]3(C)[C@@H](C(=O)Cn4cc(C#N)cn4)CC[C@H]3[C@H]12` [Compound 31], the IC50 is no less than 500 nM.

For `Cc1nnn(CC(=O)[C@H]2CC[C@H]3[C@@H]4[C@H](C)C[C@H]5C[C@](C)(O)CC[C@]5(C)[C@H]4CC[C@]23C)n1` [Compound 34], the IC50 was no less than 500 nM.

Consider `Cc1nnnn1CC(=O)[C@H]1CC[C@H]2[C@@H]3[C@H](C)C[C@H]4C[C@](C)(O)CC[C@]4(C)[C@H]3CC[C@]12C` [Compound 36], for which the IC50 was no less than 500 nM.

For `C[C@@H]1C[C@H]2C[C@](C)(O)CC[C@]2(C)[C@H]2CC[C@]3(C)[C@@H](C(=O)Cn4cc(C#N)cn4)CC[C@H]3[C@H]12` [Compound 38], the IC50 fell in the range of 100 to 500 nM.

Take `C[C@H]1C[C@H]2C[C@](C)(O)CC[C@]2(C)[C@H]2CC[C@]3(C)[C@@H](C(=O)Cn4cc(C#N)cn4)CC[C@H]3[C@H]12` [Compound 39]: the IC50 is 100 to 500 nM.

Consider `C[C@@]1(O)CC[C@@]2(C)[C@@H](CC[C@@H]3[C@@H]2C[C@@H](O)[C@]2(C)[C@@H](C#N)CC[C@@H]32)C1` [Compound 40], for which the 50% inhibitory concentration (IC50) was no less than 500 nM.

As for `CO[C@@H]1C[C@H]2[C@@H](CC[C@H]3C[C@](C)(O)CC[C@@]32C)[C@@H]2CC[C@H](C#N)[C@@]12C` [Compound 41], the IC50 lay in the range of 100 to 500 nM.

For `CO[C@H]1CC[C@H]2[C@@H]3CC[C@H]4C[C@](C)(O)CC[C@]4(C)[C@H]3C[C@@H](OC)[C@]12C` [Compound 42], the IC50 was in the range of 100 to 500 nM.

In the case of `CO[C@@H]1C[C@H]2[C@@H](CC[C@H]3C[C@](C)(O)CC[C@@]32C)[C@@H]2CC[C@H](C(C)=O)[C@@]12C` [Compound 43], the half-maximal inhibitory concentration (IC50) fell in the range of 100 to 500 nM.

Values taken from US20250092084A1, “C7, C12, AND C16 SUBSTITUTED NEUROACTIVE STEROIDS AND THEIR METHODS OF USE” (Sage Therapeutics, Inc., priority 2016, published 2025).
